Source: patent US6716853B2, “Cyclic N-substituted alpha-imino carboxylic acids for selective inhibition of collogenase” (Aventis Pharma Deutschland GmbH, priority 2002, dated 2004)
Read-outs that look alike come from different tables or passages of the source.

Tests used:
Format in all cases: biochemical
[1] = molecular target: T1, human collagenase 3 (MMP-13) catalytic domain (Homo sapiens, UniProt P45452); assay: Enzymatic activity of the catalytic domain of human collagenase 3 (MMP-13), fluorogenic substrate
T1 construct: catalytic domain of human collagenase 3 (MMP-13); purchased INVITEK, Berlin 30 100 803
Description: Determination of the enzymatic activity of the catalytic domain of human collagenase 3 (MMP-13).
Activation of the proenzyme:
2 parts by volume of proenzyme are incubated with 1 part by volume of APMA solution at 37° C. for 1.5 hours. The APMA solution is prepared from a 10 mmol/L
p-aminophenylmercuric acetate solution in […] by dilution with 3 parts by volume of Tris/HCl buffer pH7.5 (see below). The pH is adjusted to between 7.0 and 7.5 by adding 1 mmol/L HCl. After activation of the enzyme it is diluted with the Tris/HCl buffer to a concentration of 1.67 μg/mL.
To measure the enzymic activity, 10 μL of enzyme solution are incubated with 10 μL of a 3% strength (v/v) buffered dimethyl sulfoxide solution (reaction 1) for 15 minutes. To measure the enzyme inhibitory activity, 10 μL of enzyme solution are incubated with 10 μL of a 3% strength (v/v) buffered dimethyl sulfoxide solution which contains the enzyme inhibitor (reaction 2).
The enzymic reaction both in reaction 1 and in reaction 2 is followed, after addition of 10 μL of a 3% strength (v/v) aqueous dimethyl sulfoxide solution which contains 0.75 mmol/L of the substrate, by fluorescence spectroscopy (328 nm (extinction)/393 nm(emission)).
The enzymic activity is represented as increase in extinction/minute.
The inhibitory effect is calculated as percentage inhibition by the following formula:
% inhibition=100−[(increase in extinction/minute in reaction 2)/(increase in extinction/minute in reaction 1)×100].
The IC50, i.e. the inhibitor concentration necessary for 50% inhibition of enzymic activity, is found by plotting a graph of the percentage inhibitions at various inhibitor concentrations.
The buffer solution contains 0.05% Brij (Sigma, Deisenhofen, Germany) and 0.1 mol/L Tris/HCl, 0.1 mol/L NaCl, 0.01 mol/L CaCl2 (pH=7.5).
The enzyme solution contains 1.67 μg/mL of the enzyme domain.
The substrate solution contains 0.75 mmol/L of the fluorogenic substrate (7-methoxycoumarin-4-yl)acetyl-Pro-Leu-Gly-Leu-3-(2,4-dinitrophenyl)-L-2,3-diaminopropionyl-Ala-Arg-NH2 (Bachem, Heidelberg, Germany).

[2] = molecular target: T2, human stromelysin (MMP-3) catalytic domain (Homo sapiens, UniProt P08254); assay: Enzymatic activity of the catalytic domain of human stromelysin (MMP 3), fluorogenic substrate; conditions: Table 2; pH 7.5
T2 construct: catalytic domain of human stromelysin (MMP 3); made in house
Description: (§1) Preparation and determination of the enzymatic activity of the catalytic domain of human stromelysin (MMP 3) and neutrophil collagenase (MMP8).
(§2) The two enzymes—stromelysin (MMP-3) and neutrophil collagenase (MMP-8)—were prepared as described by Ye et al. (Biochemistry; 31 (1992) pages 11231-11235). To measure the enzymic activity or the enzyme inhibitory effect, 70 μl of buffer solution and 10 μl of enzyme solution are incubated at physiological pH with 10 μl of a 10% strength (v/v) aqueous dimethyl sulfoxide solution which optionally contains the enzyme inhibitor for 15 minutes. After addition of 10 μl of a 10% strength (v/v) aqueous dimethyl sulfoxide solution which contains 1 mmol/l of the substrate, the enzymic reaction is followed by fluorescence spectroscopy (328 nm (ex)/393 nm(em)).
(§3) The enzymic activity is represented as increase in extinction/minute. The IC50 values listed in table 2 are measured as the inhibitor concentrations leading in each case to 50% inhibition of the enzyme.
(§4) The buffer solution contains 0.05% Brij (Sigma, Deisenhofen, Germany) and 0.1 mol/l Tris/HCl, 0.1 mol/l NaCl, 0.01 mol/l CaCl2 and 0.1 mol/l piperazine-N,N′-bis[2-ethanesulfonic acid] (pH=7.5).
(§5) The enzyme solution contains 5 μg/ml of one of the enzyme domains prepared as described by Ye et al. The substrate solution contains 1 mmol/l of the fluorogenic substrate (7-methoxycoumarin-4-yl)acetyl-Pro-Leu-Gly-Leu-3-(2,4-dinitrophenyl)-L-2,3-diaminopropionyl-Ala-Arg-NH2 (Bachem, Heidelberg, Germany).

[3] = molecular target: T3, human neutrophil collagenase (MMP-8) catalytic domain (Homo sapiens, UniProt P22894); assay: Enzymatic activity of the catalytic domain of human neutrophil collagenase (MMP 8), fluorogenic substrate; conditions: Table 2; pH 7.5
T3 construct: catalytic domain of human stromelysin (MMP 3) and neutrophil collagenase (MMP8); made in house
Description: as §1, §2, §3, §4, §5

[4] = Table 3, comparative examples, determination as described above, read-out: MMP 13
[5] = Table 2, pH 7.5, read-out: MMP 13 IC50

T2 sequence (P08254 100-272 limits assumed): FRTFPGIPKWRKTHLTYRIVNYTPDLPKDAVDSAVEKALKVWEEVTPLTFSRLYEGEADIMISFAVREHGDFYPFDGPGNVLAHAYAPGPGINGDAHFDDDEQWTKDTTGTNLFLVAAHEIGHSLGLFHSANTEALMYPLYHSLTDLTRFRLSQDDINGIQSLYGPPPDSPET
T3 sequence (P22894 100-262 limits assumed): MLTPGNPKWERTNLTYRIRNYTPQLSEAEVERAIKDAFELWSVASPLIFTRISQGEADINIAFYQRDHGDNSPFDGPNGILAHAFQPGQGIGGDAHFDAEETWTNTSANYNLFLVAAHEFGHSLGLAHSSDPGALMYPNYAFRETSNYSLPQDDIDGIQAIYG

IC50 [1, 4]	IC50 [2]	IC50 [3]	IC50 [1, 5]	SMILES
2.9 nM				CN(C)c1ccc(-c2ccc(S(=O)(=O)N3Cc4ccccc4C[C@@H]3C(=O)O)cc2)cc1 [Example 39, reference compound]
50 nM				O=C(O)[C@H]1Cc2ccccc2CN1S(=O)(=O)c1ccc(-c2ccccc2)cc1 [Example 34, reference compound]
	3000 nM	6000 nM	30 nM	CC(C)OC(=O)Nc1ccc(-c2ccc(S(=O)(=O)N3Cc4ccccc4C[C@@H]3C(=O)O)cc2)cc1 [Example 2, 2-(4′-Isopropoxycarbonylaminobiphenyl-4-sulfonyl)-1,2,3,4-tetrahydroisocquinoline-3-(R)-carboxylic acid]
30 nM				O=C(O)[C@H]1Cc2ccccc2CN1S(=O)(=O)c1ccc(-c2ccc(Cl)cc2)cc1 [Example 35, reference compound]
	3000 nM	2300 nM	40 nM	CCOC(=O)Nc1ccc(-c2ccc(S(=O)(=O)N3Cc4ccccc4C[C@@H]3C(=O)O)cc2)cc1 [Example 1]

The remaining lines, values behind:

SMILES	IC50 [1, 4]	IC50 [2]	IC50 [3]	IC50 [1, 5]
Cn1cnc2c1C[C@H](C(=O)O)N(S(=O)(=O)c1ccc(-c3ccc(NC(=O)OCc4ccccc4)cc3)cc1)C2 [Example 7]		> 10000 nM	1000 nM	60 nM
Cn1cnc2c1C[C@H](C(=O)O)N(S(=O)(=O)c1ccc(-c3ccc(NC(=O)OCC4CC4)cc3)cc1)C2 [Example 10]		> 10000 nM	700 nM	20 nM
CC(C)COC(=O)Nc1ccc(-c2ccc(S(=O)(=O)N3Cc4ncn(C)c4C[C@@H]3C(=O)O)cc2)cc1 [Example 9]			200 nM	60 nM
O=C(Nc1ccc(-c2ccc(S(=O)(=O)N3Cc4ccccc4C[C@@H]3C(=O)O)cc2)cc1)OCC1CC1 [Example 5]		3000 nM	4000 nM	20 nM
CCCCCCOC(=O)Nc1ccc(-c2ccc(S(=O)(=O)N3Cc4ccccc4C[C@@H]3C(=O)O)cc2)cc1 [Example 3]		> 10000 nM	2000 nM	70 nM
CC(C)OC(=O)Nc1ccc(-c2ccc(S(=O)(=O)N3Cc4ncn(C)c4C[C@@H]3C(=O)O)cc2)cc1 [Example 6]			4000 nM	80 nM
Cn1cnc2c1C[C@H](C(=O)O)N(S(=O)(=O)c1ccc(-c3ccc(NC(=O)OCC(C)(C)C)cc3)cc1)C2 [Example 8]		> 10000 nM	5000 nM	70 nM
CC(C)COC(=O)Nc1ccc(-c2ccc(S(=O)(=O)N3Cc4ccccc4C[C@@H]3C(=O)O)cc2)cc1 [Example 4]		2000 nM	3000 nM	20 nM
